Drawing on patent US20070021509A1, “Phosphate transport inhibitors” (priority 2001, published 2007), this text covers IC50 for 13 molecules.

The structures appear in SMILES notation.

The assay relates to phosphate uptake by rabbit intestinal Brush Border Membrane Vesicles (BBMV). As to the kind of experiment: 33PO4 uptake in rabbit intestinal BBMV (HTS), phosphate transporter inhibition in vitro. Conditions: Table 14, in vitro, read-out: Phosphate Transport IC50. In kind it is biochemical. The method in brief: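 BBMV from duodenal mucosa of male New Zealand White rabbits, diluted to about 0.5-2.0 mg/mL protein. Uptake buffers carried 33PO4 at 200,000 CPM/19 μL. Controls: Na uptake buffer (max), plus 100 μM KH2PO4 pH 7.4 (mid), K uptake buffer (min).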
A word on the IC50: it is the concentration at which inhibition is half-maximal. `COc1ccccc1CNC(=O)c1cc(Br)ccc1NS(=O)(=O)c1ccc(OC(F)(F)F)cc1` [Example 70, 5-Bromo-N-(2-methoxy-benzyl)-2-(4-trifluoromethoxy-benzenesulfonylamino)-benzamide]: the IC50 was 6.3 µM.

With `O=C(NCc1ccc(F)cc1)c1cc(Br)ccc1NS(=O)(=O)c1ccc(OC(F)(F)F)cc1` [Example 71, 5-Bromo-N-(4-fluoro-benzyl)-2-(4-trifluoromethoxy-benzenesulfonylamino)-benzamide], the IC50 was determined as 13 µM.

Take `O=C(NCc1ccc(OC(F)(F)F)cc1O)c1cc(Br)ccc1NS(=O)(=O)c1ccc(OC(F)(F)F)cc1` [Example 75, 5-Bromo-N-(2-hydroxy-4-trifluoromethoxy-benzyl)-2-(4-trifluoromethoxy-benzenesulfonylamino)-benzamide]: the IC50 was determined as 5.2 µM.

For the molecule `COc1ccc(F)cc1CNC(=O)c1cc(Br)ccc1NS(=O)(=O)c1ccc(OC(F)(F)F)cc1` [Example 78, 5-Bromo-N-(5-fluoro-2-methoxy-benzyl)-2-(4-trifluoromethoxy-benzenesulfonylamino)-benzamide], the IC50 was 7.8 µM.

In the case of `O=C(Nc1cccc(C(F)(F)F)c1)Nc1cccc(C(F)(F)F)c1` [Example 82, 1,3Bis(3-Trifluoromethylphenyl)urea], the 50% inhibitory concentration (IC50) is 11 µM.

In the case of `O=C(Nc1cc(C(F)(F)F)cc(C(F)(F)F)c1)NC1CCCCC1` [Example 83, 1-Cyclohexyl-3-(3,5-Bistrifluoromethyl-phenyl)-urea], the IC50 turned out to be 7.7 µM.

For `Cn1nc(C(C)(C)C)cc1C(=O)Nc1ccc(C(F)(F)F)cc1` [Example 84, 5-tert-Butyl-2-methyl-2H-pyrazole-3-carboxylic acid (4-trifluoromethyl-phenyl)-amide], the IC50 turned out to be 11 µM.

As for `O=C(Nc1cccc(C(F)(F)F)c1)Nc1cc(Cl)ccc1Cl` [Example 85, 1-(2,5-Dichloro-phenyl)-3-(3-trifluoromethyl-phenyl)-urea], the IC50 worked out at 10 µM.

As for `O=C(Nc1cccc(C(F)(F)F)c1)Nc1ccc(F)c([N+](=O)[O-])c1` [Example 86, 1-(4-Fluoro-3-nitro-phenyl)-3-(3-trifluoromethyl-phenyl)-urea], the concentration for half-maximal inhibition (IC50) is 2.8 µM.

On to `Cl.N=C(Nc1ccc(Br)c(C(F)(F)F)c1)Nc1ccc(Br)c(C(F)(F)F)c1` [Example 87, N,N′-Bis-(4-bromo-3-trifluoromethyl-phenyl)-guanidine Hydrochloride], for which the IC50 was found to be 35 µM.

Take `Cl.N=C(Nc1cc(C(F)(F)F)cc(C(F)(F)F)c1)Nc1cc(C(F)(F)F)cc(C(F)(F)F)c1` [Example 88, N,N′-Bis-(3,5-bis-trifluoromethyl-phenyl)-guanidine Hydrochloride]: the concentration for half-maximal inhibition (IC50) was determined as 26 µM.

`Cl.N=C(Nc1ccc(Cl)c(C(F)(F)F)c1)Nc1ccc(Cl)c(C(F)(F)F)c1` [Example 89, N,N′-Bis-(4-chloro-3-trifluoromethyl-phenyl)-guanidine Hydrochloride]: the IC50 came to 16 µM.

Regarding `Cl.N=C(Nc1ccc(C(F)(F)F)c(C(F)(F)F)c1)Nc1ccc(C(F)(F)F)c(C(F)(F)F)c1` [Example 90, N,N′-Bis-(3,4-bis-trifluoromethyl-phenyl)-guanidine Hydrochloride], the IC50 was determined as 17 µM.
